Values of other authors, collected in patent publication US20260009077A1, “COMPOSITIONS AND METHODS FOR TREATING HYPOTHYROIDISM” (THE UNIVERSITY OF CHICAGO, priority 2022, published 2026).

## N[C@@H](Cc1cc(I)c(Oc2cc(I)c(O)c(I)c2)c(I)c1)C(=O)O [levothyroxine]
After switch from T4 and T3 containing treatment to T4 only, despite appropriate T4 doses
  proportion of patients noticing reemergence of hypothyroid symptoms: 15-20%
Hypothyroidism patients, daily tablets, standard of care
  patients in whom treatment restores normal life: at least 80%
